The source of these data is PMC4942611, “Promising Tools in Prostate Cancer Research: Selective Non-Steroidal Cytochrome P450 17A1 Inhibitors” (Scientific Reports, 2016).

Structures are written as SMILES. Like-named read-outs stand apart in the source and are kept apart here.

One assay has as its target T1, human CYP17A1 (Homo sapiens, UniProt P05093).
T1 construct: bearing a truncation of the N-terminal helix; made in house
T1 sequence (P05093 with tags, fused parts or gaps limits assumed): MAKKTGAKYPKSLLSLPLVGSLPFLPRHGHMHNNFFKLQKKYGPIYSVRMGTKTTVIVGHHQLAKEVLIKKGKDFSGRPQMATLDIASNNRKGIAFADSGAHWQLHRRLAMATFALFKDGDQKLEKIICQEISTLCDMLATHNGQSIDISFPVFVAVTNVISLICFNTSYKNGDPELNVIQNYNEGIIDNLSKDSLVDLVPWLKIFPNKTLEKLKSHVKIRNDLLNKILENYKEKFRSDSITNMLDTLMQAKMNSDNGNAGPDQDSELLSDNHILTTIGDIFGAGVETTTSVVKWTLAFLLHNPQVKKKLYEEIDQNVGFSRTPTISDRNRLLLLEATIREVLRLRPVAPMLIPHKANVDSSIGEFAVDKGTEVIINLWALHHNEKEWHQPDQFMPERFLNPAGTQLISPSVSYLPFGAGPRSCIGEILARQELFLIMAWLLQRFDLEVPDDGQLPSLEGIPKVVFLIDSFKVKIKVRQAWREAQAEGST
Put plainly: 17α-hydroxypregnenolone 17,20-lyase inhibition with purified CYP17A1. The assay is classed as biochemical. The settings on record: conversion of 17-OH-PRE into DHEA, 1.2 μM 17α-hydroxypregnenolone; mean over 3 measurements ± standard error. The protocol:
Purified cytochrome P450 17A1 (50 nmol) was incubated with truncated human cytochrome P450 reductase[48] and rat cytochrome b5 in a 1:4:0 or 1:4:4 ratio for hydroxylase and 17,20-lyase reactions, respectively. […] Reactions were initiated upon addition of 25 mM NADPH as the electron source. The hydroxylated product was quantified after HPLC using an UV detector and analyzed as previously published. The 17,20-lyase assay was performed similarly substituting 1.2 μM of 17α-hydroxypregnenolone as the substrate and inhibitor concentrations of 0–500 nM. The dehydroepiandrosterone product was quantitated using a coupled GC/MS method.

In the next assay the target is T2, CYP17A1 (Homo sapiens, UniProt P05093).
T2 construct: endogenous in cells; host or cells: H295R
T2 sequence (P05093 1-508): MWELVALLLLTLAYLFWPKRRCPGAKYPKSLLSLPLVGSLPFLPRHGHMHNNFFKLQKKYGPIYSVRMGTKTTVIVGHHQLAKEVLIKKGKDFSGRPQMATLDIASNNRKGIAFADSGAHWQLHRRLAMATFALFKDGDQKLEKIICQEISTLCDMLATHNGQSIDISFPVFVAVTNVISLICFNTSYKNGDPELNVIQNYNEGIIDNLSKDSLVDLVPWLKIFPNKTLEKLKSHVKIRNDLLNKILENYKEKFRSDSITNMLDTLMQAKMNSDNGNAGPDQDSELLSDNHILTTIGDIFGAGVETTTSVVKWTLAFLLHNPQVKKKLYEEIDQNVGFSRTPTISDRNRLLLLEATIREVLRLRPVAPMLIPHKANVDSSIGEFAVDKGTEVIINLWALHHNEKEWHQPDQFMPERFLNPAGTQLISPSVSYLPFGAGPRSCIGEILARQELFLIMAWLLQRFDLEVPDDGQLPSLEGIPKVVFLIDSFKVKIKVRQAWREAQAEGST
The assay is described as follows: H295R cell assay, CYP17A1 hydroxylase and lyase activity. The format is cell-based. The settings on record: for IC50: 48 hours, mean over 6 to 15 measurements ± standard error. The protocol: The H295R steroid hormone synthesis assay was performed according to the OECD validation guideline. Cells were cultured in DMEM/F12 media supplemented with 1% ITS-premix and 2.5% Nu-serum at 37 °C with a 5% CO2 atmosphere. The cells were only used for experiments between passage […]. During exposure experiments, cells were grown in 24 well plates with a density of 3 × 10^5 cells/mL. […] To avoid interference from low levels of steroid hormones present in the Nu-serum, the exposure experiment was conducted with serum-free media. Each compound was tested at a minimum of seven concentration levels using three or more replicates and the experiment was repeated on two different days (n = 6–15). On each test plate a solvent control (SC) (medium with 0.1% DMSO) was included in triplicate and the maximal concentration of DMSO in the cell medium was 0.1%[49]. After 48 hours of incubation in presence of the test compounds, 950 μL of the medium was carefully removed and internal standards (50 μl of 0.1 μg/μl solution containing deuterated steroid analogues) were added. Samples were stored at −20 °C for later analysis.
Steroid extraction and clean-up were performed by double protein precipitation. First, 900 μL of cold acetonitrile were added to the samples, which were then vortexed and centrifuged at ~9500 × g for 10 minutes. Second, 900 μL cold methanol was added to the supernatant and the mixture was vortexed and centrifuged at 1500 × g for 10 minutes. Finally, the supernatant was collected and concentrated to ~1 mL under a gentle stream of nitrogen at 60 °C.
For on-line solid phase extraction (SPE) of steroids, a total of 100 μL was injected on a binary 1290 Agilent Infinity Series system and a binary 1100 Agilent HPLC pump were used in combination (Agilent Technologies, Palo Alto, CA, USA). For online clean-up, a C18 enrichment column (μbondapak® C18, 3.9 × 20 mm, 10 μm, Waters) was used. The enrichment column was connected to the autosampler through the TTC switching valve (two positions, 6 ports). Between the autosampler and the TTC switching valve a 0.3 μm in-line filter (1290 infinity in-line filter, Agilent) was installed. Separation of steroid hormones was performed using a C18 analytical column (Kinetex, 2.6 μm C18 100 Å, 75 × 2.1 mm, Phenomenex, USA). An isocratic flow of 1 mL/min H2O:methanol:formic acid at 90:10:0.1 (v/v/v) was generated by the 1100 pump which was connected to the autosampler. The 1290 pump performed a gradient elution with a flow rate of 0.3 mL which was connected to the TTC switching valve. Mobile phase A and B were composed of H2O with 0.1% formic acid (v/v) and pure methanol, respectively. The elution gradient was maintained at 10% B for the first 2 min, changed to 10.0–30.0% from 2.0 to 2.2 min, 30.0–60.0% from 2.2 to 8.0 min, maintained at 60.0% from 8.0 to 10.0 min, increased to 60.0–85.0% from 10.0 to 12.30 min, 85.0–99.5% from 12.3 to 12.5 min and held at 99.5% from 12.5 to 14.8 min, before re-equilibrating the column until 16 minutes.
For detection, an AB SCIEX 4500 QTRAP mass spectrometer (Applied Biosystems, Foster City, CA, USA) equipped with an atmospheric pressure chemical ionization (APCI) Turbo V source was used. Multiple reaction monitoring (MRM) was performed in positive mode during the analysis with a targeted scan time of 0.8 sec. Nitrogen was applied as curtain, collision, and ion source gases.

Where [1] appears, read: based on conversion of 17-OH-PRE into DHEA, read-out: IC50 lyase, H295R system.
Setting [2] is: based on conversion of PRE into 17-OH-PRE, read-out: IC50 hydroxylase, H295R system.

One may read the IC50 as the midpoint of a concentration-inhibition curve. Turning to `Cc1ccc(-c2csc(-c3cccnc3)n2)c(C)c1` [Compound 1], the IC50 against human CYP17A1 came to 500 ± 90 nM; at CYP17A1 (setting [1]) it was 94 ± 30 nM; at CYP17A1 (setting [2]) it was 830 ± 80 nM.

`CCCn1nnc2cc(-c3cc(-c4ccncc4)c(C#N)c(N)n3)ccc21` [Compound 2]: the values for the IC50 against human CYP17A1, on CYP17A1 (setting [1]) and at CYP17A1 (setting [2]) were 110 ± 20 nM, 7.4 ± 0.1 nM and 52 ± 4 nM, respectively.

Regarding `C[C@]12CC[C@H](O)CC1=CC[C@@H]1[C@@H]2CC[C@]2(C)C(c3cccnc3)=CC[C@@H]12` [abiraterone, reference compound], the figures for the IC50 against human CYP17A1 and on CYP17A1 (setting [2]) were 36 ± 2 nM and 9.4 ± 0.3 nM, respectively. For the same compound, the “Inhibitor concentrations at which CYP17A1 is inhibited (only CYP17A1 affected)” value at CYP17A1 (H295R cells) was 2.5 to 10 nM.
